According to US10766884B2 (Pfizer Inc., priority 2018, dated 2020):

Key:
CDK4/Cyclin D1 = CDK4/Cyclin D1 (Homo sapiens (Human), UniProt P11802); experiment: CDK4/Cyclin D1 mobility shift assay; type: biochemical; settings: activated CDK4/Cyclin D1, 3.5 mM ATP, Morrison fit; read-out: CDK4D1 Ki
Method: (§1) The purpose CDK4/Cyclin D1 assay is to evaluate the inhibition (% inhibition, Kiapp and Ki values) in the presence of small molecule inhibitors by using a fluorescence based microfluidic mobility shift assay. […] The mobility shift assay electrophoretically separates the fluorescently labeled peptides (substrate and phosphorylated product) following the kinase reaction. Both substrate and product are measured and the ratio of these values is used to generate % Conversion of substrate to product by the LabChip EZ Reader.
The reaction was stopped after 195 minutes by the addition of 50 μL of 30 mM EDTA. Ki determinations were made from a plot of the fractional velocity as a function of inhibitor concentration fit to the Morrison equation with the enzyme concentration as a variable.
(§2) For CDK4 and CDK6 mobility shift assays, see also Morrison, J. F. (1969) Kinetics of the reversible inhibition of enzyme-catalysed reactions by tight-binding inhibitors, Biochimica et biophysica acta 185, 269-286; and Murphy, D. J. (2004) Determination of accurate KI values for tight-binding enzyme inhibitors: an in silico study of experimental error and assay design, Analytical biochemistry 327, 61-67.

CDK4 = CDK4 (Homo sapiens (Human), UniProt P11802); experiment: Phospho-Serine 795 Rb ELISA assay in JEKO-1 cells; type: cell-based; settings: overnight treatment, phospho-Rb S795, read-out: CDK4 pRB S795 ELISA JEKO-1 cells IC50
Method: (§3) JEKO-1 or MV4-11 cells were seeded at 15,000 or 20,000 cells per well, respectively, in 100 μL growth media and allowed to incubate at 37° C. with 5% CO2 overnight. The following day, compounds were serially diluted from a 10 mM top dose for an 11-point 3-fold dilution curve in DMSO. Compounds were intermediately diluted 1:200 into growth media prior to diluting 1:5 on cells for final concentration 10 μM to 0.1 nM in 0.1% DMSO on cells. JEKO-1 and MV4-11 cells were treated were treated overnight, at 37° C. with 5% CO2. Cells were lysed in 100 μL/well CST lysis buffer on ice and transferred to pre-coated and blocked anti-phospho-Ser795 Rb ELISA plates for overnight incubation at 4° C. Plates were washed to remove residual, unbound cellular proteins and total Rb detection antibody added for 90 minutes at 37° C. Following wash to remove unbound total Rb antibody, the HRP tagged antibody was allowed to bind for 30 minutes at 37° C. Following wash to remove unbound HRP antibody, Glo Substrate Reagent was added and incubated protected from light for 5 to 10 minutes. Plates were read in luminescence mode and IC50 values calculated.

CDK6 = CDK6 (Homo sapiens (Human), UniProt Q00534); experiment: Phospho-Serine 795 Rb ELISA assay in MV4-11 cells; type: cell-based; settings: overnight treatment, phospho-Rb S795, read-out: CDK6 pRB S795 ELISA MV4-11 cells IC50
Method: as §3

CDK6/Cyclin D3 = CDK6/Cyclin D3 (Homo sapiens (Human), UniProt Q00534); experiment: CDK6/Cyclin D3 mobility shift assay; type: biochemical; settings: activated CDK6/Cyclin D3, 3.5 mM ATP, Morrison fit; read-out: CDK6_D3 Ki
Method: as §1, with “of the CDK6/Cyclin D3” for “CDK4/Cyclin D1”, “conversion” for “Conversion”
The reaction was stopped after 95 minutes by the addition of 50 μL of 30 mM EDTA. Ki determinations were made from a plot of the fractional velocity as a function of inhibitor concentration fit to the Morrison equation with the enzyme concentration as a variable.
as §2

Sequence of CDK4/Cyclin D1 (P11802 whole entry): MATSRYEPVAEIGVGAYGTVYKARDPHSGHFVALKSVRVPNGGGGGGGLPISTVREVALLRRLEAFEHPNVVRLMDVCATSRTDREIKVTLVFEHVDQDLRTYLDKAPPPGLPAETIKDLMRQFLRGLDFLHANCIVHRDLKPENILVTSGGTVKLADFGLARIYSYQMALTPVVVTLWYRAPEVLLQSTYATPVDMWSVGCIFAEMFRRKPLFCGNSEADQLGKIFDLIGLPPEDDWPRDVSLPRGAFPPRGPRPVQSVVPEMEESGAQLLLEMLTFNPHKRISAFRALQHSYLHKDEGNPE
Sequence of CDK4/Cyclin D1 (P24385 whole entry partner): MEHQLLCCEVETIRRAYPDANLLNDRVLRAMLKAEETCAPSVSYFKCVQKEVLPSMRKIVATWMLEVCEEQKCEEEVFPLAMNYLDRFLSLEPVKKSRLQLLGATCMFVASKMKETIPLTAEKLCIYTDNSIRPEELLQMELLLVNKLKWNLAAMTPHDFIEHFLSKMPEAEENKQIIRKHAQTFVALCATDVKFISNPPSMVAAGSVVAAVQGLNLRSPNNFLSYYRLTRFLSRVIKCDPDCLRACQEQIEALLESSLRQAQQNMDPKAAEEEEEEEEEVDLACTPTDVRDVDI
Sequence of CDK6/Cyclin D3 (Q00534 whole entry): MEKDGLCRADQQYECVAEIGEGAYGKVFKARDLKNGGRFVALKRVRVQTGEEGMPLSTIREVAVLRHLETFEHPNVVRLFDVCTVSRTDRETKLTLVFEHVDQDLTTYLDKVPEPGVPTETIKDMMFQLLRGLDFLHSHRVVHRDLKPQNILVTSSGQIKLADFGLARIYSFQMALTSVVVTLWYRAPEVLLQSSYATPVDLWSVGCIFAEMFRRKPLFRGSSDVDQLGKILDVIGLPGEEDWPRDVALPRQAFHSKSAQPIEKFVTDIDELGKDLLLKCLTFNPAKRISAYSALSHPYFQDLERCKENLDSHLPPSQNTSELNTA
Sequence of CDK6/Cyclin D3 (P30281 whole entry partner): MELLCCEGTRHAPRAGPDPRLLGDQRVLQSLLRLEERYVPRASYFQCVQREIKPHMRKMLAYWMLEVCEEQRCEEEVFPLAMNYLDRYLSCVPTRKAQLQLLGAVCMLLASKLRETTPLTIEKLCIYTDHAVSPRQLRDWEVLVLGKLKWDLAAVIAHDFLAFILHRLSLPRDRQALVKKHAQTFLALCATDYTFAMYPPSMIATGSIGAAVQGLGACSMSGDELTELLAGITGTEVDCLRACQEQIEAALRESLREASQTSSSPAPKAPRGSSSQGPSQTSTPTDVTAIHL
Sequence of CDK4 (P11802 2-303): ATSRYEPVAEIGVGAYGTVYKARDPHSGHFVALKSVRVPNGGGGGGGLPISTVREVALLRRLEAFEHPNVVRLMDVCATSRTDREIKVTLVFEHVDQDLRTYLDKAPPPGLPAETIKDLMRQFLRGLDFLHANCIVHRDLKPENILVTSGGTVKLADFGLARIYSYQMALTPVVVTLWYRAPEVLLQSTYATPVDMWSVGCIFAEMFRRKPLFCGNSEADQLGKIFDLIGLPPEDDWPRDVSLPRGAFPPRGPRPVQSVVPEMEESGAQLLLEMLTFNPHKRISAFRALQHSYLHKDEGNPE
Sequence of CDK4 (P24385 whole entry partner): as the sequence (P24385 whole entry partner) above
Sequence of CDK6 (Q00534 whole entry): as the sequence (Q00534 whole entry) above
Sequence of CDK6 (P30281 whole entry partner): as the sequence (P30281 whole entry partner) above

Ki (CDK4/Cyclin D1) [nM]	IC50 (CDK4) [nM]	Ki (CDK6/Cyclin D3) [nM]	Compound	IC50 (CDK6) [nM]
0.5	41.3	–	CC(O)c1nc2c(F)cc(-c3nc(N[C@@H]4CCN(S(=O)(=O)C(F)F)C[C@H]4O)ncc3Cl)cc2n1C(C)C (stereo partly drawn) [Example F10, (3R,4R)-4-({5-chloro-4-[4-flluoro-2-(1-hydroxyethyl)-1-(propan-2-yl)-1H-benzimidazol-6-yl]pyrimidin-2-yl}amino)-1-(difluoromethanesulfonyl)piperidin-3-ol]	–
–	34.4	1	CC(C)(C)n1cnc2c(F)cc(-c3nc(N[C@@H]4CCN(S(C)(=O)=O)C[C@H]4O)ncc3F)cc21 [Example F15, (3R,4R)-4-{[4-(1-tert-butyl-4-fluoro-1H-benzimidazol-6-yl)-5-fluoropyrimidin-2-yl]amino}-1-(methanesulfonyl)piperidin-3-ol]	39.8
0.9	31.7	10.1	CC(C)n1cnc2c(F)cc(-c3nc(N[C@@H]4CCN(C(=O)C5COC5)C[C@H]4O)ncc3Cl)cc21 [Example F18, [(3R,4R)-4-({5-chloro-4-[4-fluoro-1-(propan-2-yl)-1H-benzimidazol-6-yl]pyrimidin-2-yl}amino)-3-hydroxypiperidin-1-yl](oxetan-3-yl)methanone]	–
0.9	–	7.1	CC(C)n1c(C2CCO2)nc2c(F)cc(-c3nc(N[C@@H]4CCN(S(C)(=O)=O)C[C@H]4O)ncc3Cl)cc21 (single isomer, unassigned) [Example A32]	–
0.6	–	4.7	CC(C)n1c([C@@H](C)O)nc2c(F)cc(-c3cc(N[C@@H]4CCN(S(C)(=O)=O)C[C@H]4O)ncc3Cl)cc21 [Example D03, (3R,4R)-4-[(5-chloro-4-{4-fluoro-2-[(1R)-1-hydroxyethyl]-1-(propan-2-yl)-1H-benzimidazol-6-yl}pyridin-2-yl)amino]-1-(methanesulfonyl)piperidin-3-ol]	–
1.3	–	9.6	CC1CNCc2nc3c(F)cc(-c4nc(N[C@@H]5CCOC[C@H]5O)ncc4Cl)cc3n21 (single isomer, unassigned) [Example A56, 1,5-anhydro-3-{[5-chloro-4-(9-fluoro-4-methyl-1,2,3,4-tetrahydropyrazino[1,2-a]benzimidazol-7-yl)pyrimidin-2-yl]amino}-2,3-dideoxy-D-threo-pentitol]	–
4	–	17.3	CN1CCC(Nc2ncc(F)c(-c3cc(F)c4ncn(C(C)(C)C)c4c3)n2)CC1 [Example A03]	–
5.4	821	–	CC(C)n1c([C@@H](C)O)nc2c(F)cc(-c3nc(N[C@@H]4CCN(S(C)(=O)=O)C[C@@H]4O)ncc3Cl)cc21 (single isomer, unassigned) [Example F11]	–
4.7	–	23.5	Cc1nc2ccc(-c3nc(N[C@@H]4CCN(S(C)(=O)=O)C[C@H]4O)ncc3Cl)nc2n1C(C)C [Example A86, (3R,4R)-4-({5-chloro-4-[2-methyl-3-(propan-2-yl)-3H-imidazo[4,5-b]pyridin-5-yl]pyrimidin-2-yl}amino)-1-(methanesulfonyl)piperidin-3-ol]	–
0.2	34.7	–	CC(C)n1c([C@@H](C)O)nc2c(F)cc(-c3nc(N[C@@H]4CCN(S(C)(=O)=O)C[C@H]4O)ncc3Cl)cc21 [Example A93, (3R,4R)-4-[(5-chloro-4-{4-fluoro-2-[(1R)-1-hydroxyethyl]-1-(propan-2-yl)-1H-benzimidazol-6-yl}pyrimidin-2-yl)amino]-1-(methanesulfonyl)piperidin-3-ol]	–
0.2	–	1.1	CS(=O)(=O)N1CC[C@@H](Nc2ncc(Cl)c(-c3cc(F)c4nc(CO)n(CC(F)(F)F)c4c3)n2)[C@H](O)C1 [Example A90, (3R,4R)-4-({5-chloro-4-[4-fluoro-2-(hydroxymethyl)-1-(2,2,2-trifluoroethyl)-1H-benzimidazol-6-yl]pyrimidin-2-yl}amino)-1-(methanesulfonyl)piperidin-3-ol]	–
1.4	–	15.5	CC(C)(O)c1nc2c(F)cc(-c3nc(N[C@@H]4CCOC[C@H]4O)ncc3Cl)cc2n1CC(F)F [Example A67, 1,5-anhydro-3-({5-chloro-4-[1-(2,2-difluoroethyl)-4-fluoro-2-(2-hydroxypropan-2-yl)-1H-benzimidazol-6-yl]pyrimidin-2-yl}amino)-2,3-dideoxy-D-threo-pentitol]	–
11.1	–	102	CNC(=O)c1nc2c(F)cc(-c3nc(N[C@@H]4CCOC[C@H]4O)ncc3Cl)cc2n1C(C)C [Example A34]	–
0.4	–	1.7	CC(C)n1c([C@H](C)O)nc2c(F)cc(-c3cc(N[C@@H]4CCN(S(C)(=O)=O)C[C@H]4O)ncc3Cl)cc21 [Example D01, (3R,4R)-4-[(5-chloro-4-{4-fluoro-2-[(1S)-1-hydroxyethyl]-1-(propan-2-yl)-1H-benzimidazol-6-yl}pyridin-2-yl)amino]-1-(methanesulfonyl)piperidin-3-ol]	–
9.9	–	62.8	Cc1nc2ncc(-c3nc(N[C@@H]4CCN(S(C)(=O)=O)C[C@H]4O)ncc3Cl)cc2n1C(C)C [Example A85, (3R,4R)-4-({5-chloro-4-[2-methyl-1-(propan-2-yl)-1H-imidazo[4,5-b]pyridin-6-yl]pyrimidin-2-yl}amino)-1-(methanesulfonyl)piperidin-3-ol]	–
0.4	–	5.9	CC(=O)c1nc2c(F)cc(-c3nc(N[C@@H]4CCN(S(C)(=O)=O)C[C@H]4O)ncc3Cl)cc2n1C(C)C [Example G01, 1-[6-(5-chloro-2-{[(3R,4R)-3-hydroxy-1-(methanesulfonyl)piperidin-4-yl]amino}pyrimidin-4-yl)-4-fluoro-1-(propan-2-yl)-1H-benzimidazol-2-yl]ethan-1-one]	–
1.5	–	11.8	CC(C)n1cnc2c(F)cc(-c3nc(N[C@@H]4CCN(C(=O)C5(C)COC5)C[C@H]4O)ncc3Cl)cc21 [Example F19, [(3R,4R)-4-({5-chloro-4-[4-fluoro-1-(propan-2-yl)-1H-benzimidazol-6-yl]pyrimidin-2-yl}amino)-3-hydroxypiperidin-1-yl](3-methyloxetan-3-yl)methanone]	–
2.1	–	19.9	CNCC(=O)N1CC[C@@H](Nc2ncc(Cl)c(-c3cc(F)c4ncn(C(C)C)c4c3)n2)[C@H](O)C1 [Example F24, 1-[(3R,4R)-4-({5-chloro-4-[4-fluoro-1-(propan-2-yl)-1H-benzimidazol-6-yl]pyrimidin-2-yl}amino)-3-hydroxypiperidin-1-yl]-2-(methylamino)ethan-1-one]	–
4.3	–	39.9	COC(=O)N1CC[C@@H](Nc2ncc(Cl)c(-c3cc(F)c4ncn(C5CCOC5)c4c3)n2)[C@H](O)C1 (single isomer, unassigned) [Example F02]	–
26.2	–	124	CCc1cnc(N[C@@H]2CCN(S(C)(=O)=O)C[C@H]2O)nc1-c1cc(F)c2nc(C)n(C(C)C)c2c1 [Example A70, (3R,4R)-4-({5-ethyl-4-[4-fluoro-2-methyl-1-(propan-2-yl)-1H-benzimidazol-6-yl]pyrimidin-2-yl}amino)-1-(methanesulfonyl)piperidin-3-ol]	–

Compound	Ki (CDK4/Cyclin D1) [nM]	IC50 (CDK4) [nM]	Ki (CDK6/Cyclin D3) [nM]	IC50 (CDK6) [nM]
Cc1nc2ccc(-c3nc(N[C@@H]4CCN(S(C)(=O)=O)C[C@H]4O)ncc3F)cc2n1C(C)C [Example A76, (3R,4R)-4-({5-fluoro-4-[2-methyl-1-(propan-2-yl)-1H-benzimidazol-6-yl]pyrimidin-2-yl}amino)-1-(methanesulfonyl)piperidin-3-ol]	–	–	6.3	242
